Results reported in patent publication US20240228491A1, “METHIONINE ADENOSYLTRANSFERASE INHIBITOR, PREPARATION METHOD THEREFOR AND APPLICATION THEREOF” (SCINNOHUB PHARMACEUTICAL CO., LTD., priority 2021, published 2024).
Where two headings read alike, the source gives them in different places.

Tests used:
[1] = target: MAT2a (Homo sapiens (Human), UniProt P31153); assay: MAT2a enzymatic activity test (colorimetric assay); format: biochemical; details: OD620, 150 min reaction, read-out: IC50 against MAT2a
MAT2a, sequence (P31153 whole entry): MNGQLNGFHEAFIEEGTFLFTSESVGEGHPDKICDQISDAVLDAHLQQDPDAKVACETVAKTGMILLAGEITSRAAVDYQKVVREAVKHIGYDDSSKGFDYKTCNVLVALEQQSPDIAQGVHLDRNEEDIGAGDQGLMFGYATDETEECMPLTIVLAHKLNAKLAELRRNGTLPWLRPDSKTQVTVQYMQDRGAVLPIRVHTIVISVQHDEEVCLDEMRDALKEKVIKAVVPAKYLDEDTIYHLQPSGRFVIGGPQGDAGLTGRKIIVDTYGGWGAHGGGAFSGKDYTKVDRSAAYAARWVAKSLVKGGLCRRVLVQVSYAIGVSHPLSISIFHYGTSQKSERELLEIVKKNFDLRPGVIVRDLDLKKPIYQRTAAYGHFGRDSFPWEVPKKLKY
Method in brief: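 MAT2a (20 μg/mL working solution) was preincubated 15 min with compound (10-point, 3-fold series from 1 or 10 μM) in Tris/KCl/MgCl2 buffer, pH 8.0. Reaction with 400 μM ATP and 600 μM L-methionine (substrate-mix concentrations) ran 150 min. Phosphate was detected by BIOMOL Green at OD620, with IC50 from log(inhibitor)-response fitting.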

[2] = tested on: HCT116 MTAP-/- cells; assay: Activity test of HCT116 MTAP gene homozygous deletion cells (CellTiter-Glo); format: cell-based; details: Homo sapiens, HCT-116, 120 h incubation, read-out: HCT116 MTAP-/- Cell IC50
Method in brief: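 Cells seeded at 1000-3000/well in RPMI-1640 + 10% FBS, serum-starved 4 h, then treated with compound in complete medium for 120 h at 37 °C, 5% CO2. Viability read by CellTiter-Glo luminescence after 60 min; % inhibition versus untreated and cell-free wells, IC50 from dose-response fit.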

[3] = tested on: DOHH-2 cells; assay: Inhibitory activity test of DOHH-2 cells; format: cell-based; details: Homo sapiens, 120 h incubation, CellTiter-Glo, read-out: DOHH-2 cell inhibitory activity IC50
Method: On day 1, cell seeding: cells were resuspended to the desired density with DMEM complete medium (Gibico, Cat. No. 10569010) supplemented with 10% FBS (Gibco, 10099141C), mixed evenly, and added into the 384-well plate at 30 μL/well with a cell density of 800/well. The compounds to be tested were added as follows: 30 nL of DMSO solution containing the compound (the concentration of the compound in which was formulated as: 3-fold gradient dilution from 10 mM, 10 concentration points in total) was added, incubated for 120 h at 37° C., 5% CO2. On day 6, the cells treated with compounds were removed and equilibrated to room temperature, 30 μL of CellTiter-Glo (Promega company, Cat. No. G7573) reagent was added per well, and the cells were fully lysed by shaking at room temperature, and then incubated in dark at 37° C., 5% CO2 for 30 min, to detect the fluorescence intensity.
% Inhibition=100−(signal of the well with the compound to be tested−signal of the well with only medium and free of cells)/(signal of the well with cells but without the addition of the compound−signal of the well with only medium and free of cells)×100.
The log value of concentration was used as the X-axis and % Inhibition was used as the Y-axis, so as to fit the dose-effect curve and calculate the IC50 value using nonlinear regression (dose response−variable slope) in the analysis software GraphPad Prism 8.

[4] = In vivo pharmacokinetic study in SD rats; details: SD rat, plasma; for AUC(0-t): read-out: Area under curve AUC(0-t); for half-life: read-out: Half life T1/2 (converted); for Cmax: read-out: Maximal concentration Cmax
Method: Species: SD rat. Source: Charles River Laboratory Animal Technology Co., Ltd. Number: 3 rats per dosage group.
(§1) 1.1 An appropriate amount of the test sample was accurately weighed, into which 5% DMSO, 10% polyethylene glycol-15 hydroxystearate, 85% normal saline (all in volume percent) were added sequentially, and were fully mixed via vortex or ultrasound, to obtain the dosing solution with a test sample concentration of 0.2 mg/mL for intravenous administration.
as §1, with “1.2” for “1.1”, “0.5” for “0.2”, “oral gavage” for “intravenous”
Weighing was performed before administration, and the administration amount was calculated according to the body weight. The drug was administered orally by gavage or intravenously.
On the day of the test, 100 μL of blood was collected via the jugular sinus at each set time point, and the whole blood samples were placed in anticoagulation tubes containing EDTA-K2. Whole blood samples were centrifuged at 1500 g for 10 min to separate the plasma, and the upper plasma samples were collected into sample tubes. Biological samples were stored at −40° C. to −20° C. for analysis.
According to the requirements of SOP-BA-002 (Liquid Mass Spectrometry for biological sample analysis) of Suzhou 3D BioOptima New Drug Development Co., Ltd., an LC-MS/MS analytical method was established to determine the concentrations of compounds in rat plasma, and used to determine the concentrations of compounds in the biological samples obtained in this experiment.
Pharmacokinetic parameters were calculated using the non-compartment model of Pharsight Phoenix 8.0.

IC50 [1]: 13.6 nM | IC50 [2]: 7.43 nM | Apparent clearance rate Cl ([4]; IV 1 mg/kg): 0.745 mL/min/kg | AUC(0-t) ([4]; IV 1 mg/kg): 17600 ng·h/mL | half-life ([4]; IV 1 mg/kg): 5.8 h | Cmax ([4]; IV 1 mg/kg): 2710 ng/mL | AUC(0-t) ([4]; PO 5 mg/kg): 67100 ng·h/mL | half-life ([4]; PO 5 mg/kg): 9.14 h | Cmax ([4]; PO 5 mg/kg): 4140 ng/mL | bioavailability ([4]; PO 5 mg/kg vs IV 1 mg/kg, read-out: Bioavailability F %): 76.3%
Structure (SMILES): Nc1c(-c2ccc3nccnc3c2)c(=O)n(-c2ccc(Cl)cc2)c2nc(C(F)(F)F)ccc12 [Example 36]
IC50 [3]: 7 nM
